Values quoted from earlier work as cited in patent EP4613273A1, “TREATMENT OF BONE LOSS” (priority 2024, dated 2025).

Target: T1, cathepsin K (Homo sapiens, UniProt P43235)
T1 construct: host or cells: patients with postmenopausal osteoporosis (endogenous enzyme)
T1 sequence (P43235 115-329): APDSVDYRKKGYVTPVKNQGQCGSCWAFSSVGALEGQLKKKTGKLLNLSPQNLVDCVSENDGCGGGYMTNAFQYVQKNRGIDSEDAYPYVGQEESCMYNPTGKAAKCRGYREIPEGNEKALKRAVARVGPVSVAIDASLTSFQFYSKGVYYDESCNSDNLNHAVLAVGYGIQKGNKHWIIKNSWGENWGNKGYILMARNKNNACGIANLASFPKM
Conditions: cited from earlier work

Structure (SMILES): CC(C)(F)C[C@H](N[C@@H](c1ccc(-c2ccc(S(C)(=O)=O)cc2)cc1)C(F)(F)F)C(=O)NC1(C#N)CC1 [Odanacatib]
- adverse effects leading to termination of development: cardio-cerebrovascular adverse effects
